Here are results for two molecules from patent EP4685136A1, “AMINO LIPID, AND LIPID NANOPARTICLES AND USE THEREOF” (Shenzhen MagicRNA Biotechnology Co., Ltd., priority 2023, dated 2024).

A short description of data set [1]: Encapsulation efficiency of LNPs with different phospholipid lipid contents (microplate reader). As to conditions: Luc-mRNA LNPs, molar ratios of Table 4 (B1-B7); controls with 10 % phospholipid lipid. It is filed as physicochemical. The source says: (§1) Preparation of lipid nanoparticles: the ionizable lipid (E12LA6B6O3) content was kept at 42.5%, the PEGylated lipid DMG-PEG2000 content was kept at 1.5%, and the phospholipid lipid ratio was adjusted to 15, 12.5, 10, 7.5, 5.0, 2.5, and 0. The increased or decreased molar ratio during adjustment of the phospholipid lipid molar ratio was applied to the cholesterol ratio to verify its effect on the quality control evaluation of lipid nanoparticles and on the in vivo delivery performance of luciferase mRNA. ALC-0315 and SM-102 were used as positive controls. Table 4: Component ratios under different phospholipids
E12LA6B6O3, phospholipid lipid (DSPC), cholesterol, and PEGylated lipid DMG-PEG2000 were mixed and dissolved in anhydrous ethanol according to the molar ratio in Table 4. The obtained ethanol solution and citric acid buffer (50 mM, pH = 4.0) dissolved with Luc-mRNA (TriLink) were mixed in a microfluidic chip at a volume ratio of 1:3 using a microfluidic preparation system to prepare a crude solution of lipid nanoparticles, which was then dialyzed in 1X PBS at 4°C for 6 h using a dialysis cassette (Fisher, MWCO 20,000). […] The quality control of lipid nanoparticles was tested on a Malvern particle size analyzer and an microplate reader, and SM-102 and ALC-0315 (both purchased from AVT (Shanghai) Pharmaceutical Technology Co., Ltd) were added as a control group.

The test system of a further data set is Balb/C mice. The data set can be described thus: In vivo delivery of luciferase mRNA by tail vein injection of LNPs with different DSPC contents (IVIS Spectrum). As to conditions: total fluorescence intensity, 0.1 mg/kg mRNA, 6 hours.
From the text: as §1
E12LA6B6O3, phospholipid lipid (DSPC), cholesterol, and PEGylated lipid DMG-PEG2000 were mixed and dissolved in anhydrous ethanol according to the molar ratio in Table 4. […] The quality control of lipid nanoparticles was tested on a Malvern particle size analyzer and an microplate reader, and SM-102 and ALC-0315 (both purchased from AVT (Shanghai) Pharmaceutical Technology Co., Ltd) were added as a control group. […]
In vivo delivery: Three Balb/C mice were randomly selected from each group and injected with lipid nanoparticle solution at a dose of 0.1 mg/kg mRNA via tail vein injection. […] After 10 minutes, the mice were placed under the in vivo imaging system (IVIS Spectrum) to observe the total fluorescence intensity of each mouse and take photos for recording. […]

Data set [2] is described as follows: Particle size and PDI of LNPs with different phospholipid lipid contents (Malvern particle size analyzer). It is filed as physicochemical. As to conditions: Luc-mRNA LNPs, molar ratios of Table 4 (B1-B7); controls with 10 % phospholipid lipid.
From the text: as §1
E12LA6B6O3, phospholipid lipid (DSPC), cholesterol, and PEGylated lipid DMG-PEG2000 were mixed and dissolved in anhydrous ethanol according to the molar ratio in Table 4. The obtained ethanol solution and citric acid buffer (50 mM, pH = 4.0) dissolved with Luc-mRNA (TriLink) were mixed in a microfluidic chip at a volume ratio of 1:3 using a microfluidic preparation system to prepare a crude solution of lipid nanoparticles, which was then dialyzed in 1X PBS at 4°C for 6 h using a dialysis cassette (Fisher, MWCO 20,000). The product was filtered through a 0.22 µm microporous filter membrane before use. The base molar ratio of the amino lipid compound to the luciferase mRNA (Luc mRNA) is about 6.5:1. The quality control of lipid nanoparticles was tested on a Malvern particle size analyzer and an microplate reader, and SM-102 and ALC-0315 (both purchased from AVT (Shanghai) Pharmaceutical Technology Co., Ltd) were added as a control group.

Data set [3] in a line: Particle size and PDI of Luc-mRNA lipid nanoparticles (Nano-ZS ZEN3600, Malvern). It is filed as physicochemical. As to conditions: LNP of amino lipid:DSPC:cholesterol:DMG-PEG2000 47.5:10:41:1.5 with Luc-mRNA; lipid to mRNA mass ratio about 40:1. Here is the method: (§2) The amino lipid compound of the present invention (or DLin-MC3 or SM-102 (both purchased from AVT (Shanghai) Pharmaceutical Technology Co., Ltd.)), phospholipid lipid (DSPC), cholesterol, and PEGylated lipid (DMG-PEG2000) were mixed and dissolved in anhydrous ethanol at a molar ratio of 47.5:10:41:1.5. The resulting ethanol solution and citric acid buffer (50 mM, pH = 4.0) dissolved with Luc-mRNA (TriLink) were mixed in a microfluidic chip at a volume ratio of 1:3 using a microfluidic preparation system to prepare a crude solution of lipid nanoparticles, which was then dialyzed in 1X PBS at 4°C for 6 h using a dialysis cassette (Fisher, MWCO 20,000). The product was filtered through a 0.22 µm microporous filter membrane before use. The mass ratio of the amino lipid compound to luciferase mRNA (Luc mRNA) was about 40:1.
The particle size and PDI (polydispersity index) of the prepared lipid nanoparticles were measured by Nano-ZSZEN3600 (Malvern). 20 µL of lipid nanoparticle (LNP) solution was taken for particle size measurement, and cycled three times with each cycle for 30 s.

Another data set deals with primary BMDC cells. The data set can be described thus: Transfection of Luc mRNA lipid nanoparticles on primary BMDC cells (ONE-Glo luciferase readout). It is filed as cell-based, C57BL/6 mice. The conditions noted are these: expression intensity of Luc mRNA on BMDCs; 10 µL LNP per well, 20,000 cells per well, 12 hours. On the procedure: (§3) Animal preparation: 6-week-old female C57BL/6 mice weighing about 20 g were selected and raised in an SPF-grade feeding room. Animal experiments were conducted strictly in accordance with the guidelines of the National Institutes of Health and animal ethics requirements.
Cell acquisition: C57BL/6 mice were sacrificed by cervical dislocation and immersed in 75% alcohol for 5 minutes for disinfection. The thigh and tibia of the mice were dissected and the attached muscles were removed to expose the bone. The bone marrow in the tibia was blown out with a 1 mL syringe filled with PBS. The obtained bone marrow was dispersed by blowing and filtered through a 50 µm filter mesh to remove impurities. Red blood cell lysis solution (3-4 mL) was added to the obtained filtrate and allowed to stand for 5 minutes. Then, the supernatant was removed by centrifugation at 800 g for 5 minutes. The obtained cells were placed in 1640 culture medium (containing 10% fetal bovine serum, 20 ng/mL GMCSF, 10 ng/mL IL4) for being resuspended, and inoculated into 6-well plates at a density of 100,000 cells/mL of culture medium. The plates were placed in a cell culture incubator containing 5% CO2 at 37°C, and the medium was half-changed every 2 days. On the seventh day, the suspended cells and loosely adherent cells were collected and inoculated into 96-well all-white ELISA plates at a density of 20,000 cells per well, with a culture medium volume of 100 µL.
Cell transfection: the lipid nanoparticles encapsulating luciferase mRNA were added to a 96-well all-white ELISA plate with spreaded primary cells, and the volume of mRNA lipid nanoparticles added to each well was controlled to be 10 µL. Then, the plate was placed in an incubator with 5% CO2 concentration at 37°C for 12 hours.
Transfection efficiency detection: 20 µL of substrate ONE-Glo™ Luciferase was added to each well of a 96-well all-white ELISA plate, and the assay was performed using a multifunctional microplate reader (Biorek SynergyH1) after 1 min. The expression intensity of Luc mRNA transfected on BMDCs by lipid nanoparticles (LNPs) composed of representative amino lipid compounds is shown in Table 2, with DLin-MC3 and SM0102 as controls. Table 2 Expression intensity of transfection of representative amino lipid compounds on BMDCs

The test system of a further data set is C57BL/6 mice. The data set can be described thus: In vivo delivery of luciferase mRNA by intramuscular injection of LNPs (IVIS imaging). As to conditions: total fluorescence intensity, Luc mRNA LNP, 0.5 mg/kg mRNA, 12 hours. Here is the method:
Preparation of lipid nanoparticles: same as Example 36.
as §3
In vivo delivery: Five C57BL/6 mice were randomly selected from each group and injected with lipid nanoparticle solution at a dose of 0.5 mg/kg mRNA by intramuscular injection. Twelve hours later, 200 µL of 10 mg/mL D-luciferin potassium salt was injected into the peritoneal cavity of each mouse. Five minutes later, the mice were placed under an in vivo imaging system (IVIS-200, Xenogen) to observe the total fluorescence intensity of each mouse and take photos for recording. The expression intensity of Luc mRNA delivered by intramuscular injection of LNPs composed of representative amino lipid compounds is shown in Table 3, with DLin-MC3 and SM-102 as controls. Table 3 Expression intensity of Luc mRNA delivered by intramuscular injection of LNPs composed of representative amino lipids

Data set [4] can be described thus: Encapsulation efficiency of Luc-mRNA lipid nanoparticles (Quant-iT RiboGreen RNA Kit). It is filed as physicochemical. The conditions noted are these: LNP of amino lipid:DSPC:cholesterol:DMG-PEG2000 47.5:10:41:1.5 with Luc-mRNA; lipid to mRNA mass ratio about 40:1. On the procedure: as §2
The encapsulation efficiency was determined according to the standard procedure of the Quant-iT RiboGreen RNA Kit. Table 1 Characterization data of LNPs prepared using representative amino lipid compounds

Turning to `CCCCCCCCC(CCCCCC)C(=O)OCCCCCCN(CCCCO)CCCCCCOC(=O)C(CCCCCC)CCCCCCCC` (stereo not shown) [ALC-0315], the “Encapsulation efficiency (%)” value in data set [1] is recorded as 94.1%. For the same molecule, in the data set on Balb/C mice, the Fluorescence intensity was 1.26E+10. In data set [2], the PDI worked out at 0.08 and the “Particle size (nm)” value was 71.3 nm.
On to `CCCCCCCCCCCOC(=O)CCCCCN(CCO)CCCCCCCC(=O)OC(CCCCCCCC)CCCCCCCC` [SM-102, reference compound], for which the “Average particle size (nm)” value in data set [3] is on record as 79 nm. For the same molecule, the PDI in data set [3] was 0.10; in data set [2] it was 0.09. In the data set with primary BMDC cells, the Luminescence intensity amounted to 1.0E+05. The “Encapsulation efficiency (%)” value stood at 96.4% in data set [1] and 94.32% in data set [4]. In addition, the Fluorescence intensity turned out to be 9.86E+9 in the data set on Balb/C mice and 1.4E+09 in the data set on C57BL/6 mice. The “Particle size (nm)” value in data set [2] was found to be 91.9 nm.
